PubChem BioAssay (NCI)
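All cell lines were grown in 96-well plates and treated with compound for 48 hours. TGI: concentration producing complete growth inhibition.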

How the values were obtained:
Test in all cases: NCI tumour cell line growth inhibition, 48 h
SK-MEL-5 melanoma = tested on: SK-MEL-5 melanoma
RPMI-8226 leukemia = tested on: RPMI-8226 leukemia
IGROV1 ovarian = tested on: IGROV1 ovarian
K-562 leukemia = tested on: K-562 leukemia
SF-268 CNS = tested on: SF-268 CNS
CCRF-CEM leukemia = tested on: CCRF-CEM leukemia
SF-539 CNS = tested on: SF-539 CNS
HOP-92 NSCLC = tested on: HOP-92 NSCLC
NCI/ADR-RES ovarian = tested on: NCI/ADR-RES ovarian
NCI-H522 lung = tested on: NCI-H522 lung
HS 578T breast = tested on: HS 578T breast

Row | SMILES | TGI (SK-MEL-5 melanoma) | TGI (RPMI-8226 leukemia) | TGI (IGROV1 ovarian) | TGI (K-562 leukemia) | TGI (SF-268 CNS) | TGI (CCRF-CEM leukemia) | TGI (SF-539 CNS) | TGI (HOP-92 NSCLC) | TGI (NCI/ADR-RES ovarian) | TGI (NCI-H522 lung) | TGI (HS 578T breast)
1 | CCN(CC)CCCC(C)Nc1ccnc2ccc3nn(C)nc3c12 (centres undefined) | > 100 µM | > 100 µM | > 100 µM | 86.3 µM | > 100 µM | > 100 µM | > 100 µM | – | – | – | –
2 | COc1cc(NC(C)=O)ccc1C(=O)NN1C(=O)C(Cl)C1c1ccco1 (centres undefined) | > 100 µM | > 100 µM | > 100 µM | > 100 µM | > 100 µM | > 100 µM | > 100 µM | > 100 µM | > 100 µM | > 100 µM | –
3 | c1ccc(C2=NOC3(c4ccccc4)SC4CCCCC4CN23)cc1 (centres undefined) | 28.7 µM | 95.4 µM | 32.8 µM | > 100 µM | 95.5 µM | 31.6 µM | 39.2 µM | 59.4 µM | – | 22.6 µM | –
4 | COc1ccc(C2Oc3cc(OC)c(O)c(C)c3[C@H]2C)cc1 (some centres undefined) | > 100 µM | – | > 100 µM | > 100 µM | > 100 µM | > 100 µM | > 100 µM | > 100 µM | – | > 100 µM | –
5 | NC(=O)c1coc(C2OC(CO)C(O)C2O)n1 (centres undefined) | – | > 100 µM | > 100 µM | > 100 µM | > 100 µM | > 100 µM | > 100 µM | > 100 µM | – | > 100 µM | –
6 | C[C@]12Cc3cnn(-c4ccc(F)cc4)c3NC1CC[C@@H]1C2CC[C@@]2(C)C1CC[C@@H]2O (some centres undefined) | 15 µM | – | 28.5 µM | 24 µM | 37.9 µM | 32.6 µM | 8.56 µM | 24.7 µM | – | 25.4 µM | 26.5 µM
7 | O=C(Cc1csc(N=Nc2c(O)[nH]c3ccccc23)n1)Nc1ccccc1 | > 100 µM | – | 30.5 µM | – | 41.4 µM | – | 79.4 µM | > 100 µM | 41 µM | – | –
8 | CCOC(=O)Cc1csc2[n+]1C(=O)/C(=C\c1cccc(Cl)c1Cl)S2 | 30.6 µM | – | 50.6 µM | – | 80.2 µM | 37.8 µM | 47.1 µM | 26.8 µM | 33.2 µM | 41.3 µM | 89.7 µM
9 | [N-]=[N+]=Nc1c(C=O)c(=O)n(-c2ccccc2)c2ccccc12 | 27.5 µM | – | 44.8 µM | 21.5 µM | > 100 µM | 18.9 µM | > 100 µM | 31.1 µM | 88.5 µM | – | 79.1 µM
10 | O=C(Nc1cc2c(=O)oc3ccccc3c2oc1=O)c1cccnc1 | > 100 µM | – | > 100 µM | > 100 µM | – | > 100 µM | > 100 µM | > 100 µM | > 100 µM | > 100 µM | –
11 | CN(CCO)c1nc(N)cc(=O)[nH]1 | > 100 µM | > 100 µM | > 100 µM | > 100 µM | > 100 µM | > 100 µM | > 100 µM | > 100 µM | – | > 100 µM | –
12 | CS(=O)(=O)c1c(N)c2nc(Cl)cn2c2nc3ccccc3nc12 | > 100 µM | > 100 µM | > 100 µM | > 100 µM | > 100 µM | > 100 µM | > 100 µM | – | – | > 100 µM | –
13 | O=c1[nH]c2cc([N+](=O)[O-])ccc2nc1/C(=N/Nc1ccccc1)C(O)c1ccc(C(O)/C(=N\Nc2ccccc2)c2cnc3cc([N+](=O)[O-])ccc3n2)cc1 (centres undefined) | > 100 µM | > 100 µM | > 100 µM | > 100 µM | > 100 µM | > 100 µM | > 100 µM | > 100 µM | – | > 100 µM | –
14 | O=C(Cc1csc(-c2nc(CC(=O)NNc3ccccc3)cs2)n1)NNc1ccccc1 | > 100 µM | > 100 µM | > 100 µM | > 100 µM | > 100 µM | > 100 µM | > 100 µM | > 100 µM | – | 43.5 µM | –
15 | C/C(=N\Nc1nc2ccccc2n1C)c1cnccn1 | 10 µM | – | – | > 100 µM | > 100 µM | 6.17 µM | > 100 µM | 6.83 µM | 3.14 µM | > 35.8 µM | –
16 | CCOC(=O)Cc1csc2[n+]1C(=O)/C(=C/c1cccc(OC)c1O)S2 | > 100 µM | – | > 100 µM | – | – | – | > 100 µM | > 100 µM | > 100 µM | – | –
17 | Clc1ccccc1C1=NN(c2ccccc2)C2c3ccccc3OCC12 (centres undefined) | > 100 µM | > 100 µM | > 100 µM | > 100 µM | > 100 µM | > 100 µM | – | > 100 µM | – | > 100 µM | –
18 | CC(C)(C)NC(=O)NC12CC3CC(CC(F)(C3)C1)C2 | – | > 100 µM | > 100 µM | > 100 µM | – | > 100 µM | > 100 µM | > 100 µM | – | > 100 µM | –
19 | Cc1nc(C(N)=S)sc1C(/C=C/c1ccc(Cl)c(Cl)c1)=N/NC(C)(C)C | > 100 µM | – | > 100 µM | – | > 100 µM | > 100 µM | > 100 µM | > 100 µM | > 100 µM | > 100 µM | > 100 µM
20 | CC1(C)CC(=O)C2=C(C1)NC1=C(C(=O)CC(C)(C)C1)C2c1ccc([N+](=O)[O-])cc1 | > 100 µM | > 100 µM | > 100 µM | > 100 µM | > 100 µM | – | > 100 µM | > 100 µM | – | > 100 µM | > 100 µM
